# According to patent publication EP0410278A1, “Renin inhibiting aminooligohydroxy-derivatives” (HOECHST AKTIENGESELLSCHAFT, priority 1989, dated 1991):
# Tested on: Rhesusaffen
# Test: In vivo test in furosemide-pretreated, anaesthetised rhesus monkeys: blood pressure, heart rate, plasma renin activity
# Conditions: 2 mg/kg i.d. (in 0,1 n Zitronensäure 2 mg/ml); for Änderung PRA [%]: Plasma-Renin-Aktivität
# Text: Renin-Hemmer bewirken an salzverarmten Tieren eine Blutdrucksenkung. Da sich menschliches Renin von dem Renin anderer Spezies unterscheidet, werden zum in-vivo-Test von Renin-Hemmern Primaten, wie zum Beispiel Rhesus-Affen, herangezogen.
# Primaten-Renin und Human-Renin sind in ihrer Sequenz weitgehend homolog. Durch i.v. Injektion von Furosemid wird eine endogene Renin-Ausschüttung angeregt. Anschließend werden die Testverbindungen verabreicht und ihre Wirkung auf Blutdruck und Herzfrequenz wird gemessen.
# 6 Rhesusaffen wurden an 6 aufeinanderfolgenden Tagen mit 10 mg/kg·d Furosemid oral vorbehandelt. Am 7. Tag wurden etwa 30 Minuten vor Versuchsbeginn weitere 10 mg/kg Furosemid i.v. verabreicht. Anschließend wurde die Anästhesie mit 20 mg/kg Ketamin i.m. eingeleitet und mit 40 mg/kg Pentobarbiton i.v. fortgesetzt. Ein Seitenarm der Femoralarterie wurde freipräpariert und zur Blutdruckmessung mittels eines Blutdruck-Wandlers (P 23 ID) kanuliert. Blutproben zur Bestimmung der Plasma-Renin-Aktivität wurden über eine Braunüle in der Saphena-Vene abgenommen.
# Die Titelverbindung des Beispiels 2 zeigt folgendes Ergebnis: 2 mg/kg i.d. (in 0,1 n Zitronensäure 2 mg/ml)
compound,measurement,setting,value
"CC(C)(C)S(=O)(=O)CC(Cc1ccccc1)C(=O)NC(Cc1c[nH]cn1)C(=O)NC(CC1CCCCC1)C(O)C(O)C(O)C(O)CO [Beispiel 2, (2(S)-Benzyl,3-t-butylsulfonyl)propionyl-His-[(D)-Manno-Pentol]]",Blutdruck-Änderung [%],t 1 min,"-0,72%"
same,Puls-Änderung [%],t 1 min,"-1,16%"
same,Blutdruck-Änderung [%],t 3 min,"-8,21%"
same,Puls-Änderung [%],t 3 min,"-1,61%"
same,Blutdruck-Änderung [%],t 5 min,"-11,53%"
same,Puls-Änderung [%],t 5 min,"-2,42%"
same,Blutdruck-Änderung [%],t 10 min,"-11,82%"
same,Puls-Änderung [%],t 10 min,"-2,51%"
same,Blutdruck-Änderung [%],t 15 min,"-12,68%"
same,Puls-Änderung [%],t 15 min,"-3,49%"
same,Blutdruck-Änderung [%],t 20 min,"-13,48%"
same,Puls-Änderung [%],t 20 min,"-1,97%"
same,Blutdruck-Änderung [%],t 30 min,"-16,43%"
same,Puls-Änderung [%],t 30 min,"-1,61%"
same,Blutdruck-Änderung [%],t 45 min,"-12,82%"
same,Puls-Änderung [%],t 45 min,"+0,09%"
same,Blutdruck-Änderung [%],t 60 min,"-13,98%"
same,Puls-Änderung [%],t 60 min,"-0,09%"
same,Puls-Änderung [%],t 75 min,"+1,16%"
same,Puls-Änderung [%],t 90 min,"+3,04%"
same,Änderung PRA [%],t 15 min,-20%
same,Änderung PRA [%],t 30 min,-62%
same,Änderung PRA [%],t 45 min,-53%
same,Änderung PRA [%],t 60 min,-58%
same,Änderung PRA [%],t 90 min,-51%
same,Änderung PRA [%],t 120 min,-47%
